Reference: patent publication US20190117586A1, “METHODS OF PREVENTING OR TREATING PARKINSON'S DISEASE BY THE FARNESYLATION OF PARIS” (The Johns Hopkins University, priority 2016, published 2019)

Key:
PPARα and PPARγ = PPARα and PPARγ levels and target gene mRNA in farnesol fed mice; format: in vivo
PGC-1α = PGC-1α level in brain regions of farnesol-fed mice; format: in vivo; conditions: farnesol-fed mice versus normal mouse chow
Protocol: Farnesol is a natural organic compound in both plants and animals. Phosphate derivatives of farnesol are the building blocks of cholesterol in mammalian cells. […] The level of PGC-1α was measured from different brain regions in farnesol-fed mice. PGC-1α levels increase 2.7-fold in the olfactory bulb (OB), 1.6-fold in hippocampus (HIP), and 1.7-fold in substantia nigra (SN) as compared to that of mice on normal mouse chow (FIGS. 2H and 2I). […] In addition, mRNA levels of PGC-1α and a variety of PGC-1α's target genes in the STR, HIP, and SN of farnesol-fed mice were measured.

α-syn PFF-injected mice = α-syn PFF-injected mice (WT and C638S KI); format: in vivo; conditions: farnesol diet from 2 weeks post-injection; WT versus C638S KI
Description: Specifically, FIG. 16A illustrates generating Zfp746^C638S/C638S knockin mice (C638S KI) by CRISPR/Cas9. […] WB, western blot analysis. (FIG. 16B). […] (FIG. 16C). […] Stereological TH, Nissl-positive neuronal counting was indicated at the bottom, n=4 mice per group. (FIG. 16 D). […] WT, n=8, 9, 10, and 9 mice for each group; C638S KI, n=8, 10, 9, and 9 mice for each group. (FIG. 16 D). […] WT, n=8, 9, 10, and 9 mice for each group; C638S KI, n=9, 10, 9, and 9 mice for each group. (FIG. 16F). […] Data=mean±SEM. (FIG. 16G).
Statistical significance was determined by two-way ANOVA test with Tukey post-hoc analysis. Differences were considered significant when p<0.05. *p<0.05, **p<0.01, and ***p<0.001.

[1] = dietary farnesol in rats; cited from earlier work
PPARγ = molecular target: T1, PPARγ (Homo sapiens, UniProt P37231); conditions: cited from earlier work
T1 sequence (P37231 1-505): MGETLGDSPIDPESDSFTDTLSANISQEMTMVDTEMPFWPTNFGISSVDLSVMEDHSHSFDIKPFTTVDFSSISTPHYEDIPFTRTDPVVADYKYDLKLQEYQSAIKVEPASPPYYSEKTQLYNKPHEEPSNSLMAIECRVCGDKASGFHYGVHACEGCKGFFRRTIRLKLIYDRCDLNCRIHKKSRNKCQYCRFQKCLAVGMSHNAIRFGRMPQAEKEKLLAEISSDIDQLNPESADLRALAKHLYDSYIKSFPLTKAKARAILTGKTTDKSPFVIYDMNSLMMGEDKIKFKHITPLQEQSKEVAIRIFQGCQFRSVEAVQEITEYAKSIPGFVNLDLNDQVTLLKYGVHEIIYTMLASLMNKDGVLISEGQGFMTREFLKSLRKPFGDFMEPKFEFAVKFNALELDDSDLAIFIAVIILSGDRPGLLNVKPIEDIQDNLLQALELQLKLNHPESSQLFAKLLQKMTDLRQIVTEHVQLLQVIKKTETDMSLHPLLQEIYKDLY

PGC-1α and NRF-1 = test: shRNA knockdown of PARIS in SH-SY5Y cells; format: cell-based
cPK-KO mice = test: Conditional adult parkin knockout (cPK-KO) mice; format: in vivo
Description: In this setting, the level of farnesylated PARIS was monitored in the SN of cPK-KO mice fed with either chow diet or farnesol diet.
To generate Cre-flox conditional model of parkin knock out, an adeno-associated vector expressing GFP fused Cre recombinase (AAV-GFPCre) was stereotaxically introduced into the SN of exon 7 floxed parkin mice (parkin^Flox/Flox).

Tg-PARIS mice = test: Tet inducible conditional PARIS transgenic mice (Tg-PARIS); format: in vivo
Description: A C-terminal FLAG tagged human PARIS under the control of a tetracycline responsive regulator (TetP-PARIS-Flag) was used to generate tetracycline responsive transgenic mice (Figure S5A). […] Three of the highest copy number male founder mice were crossed with the CamKIIα-tTA transgenic mice to achieve transgene expression throughout the mouse forebrain (Mayford et al., 1996). […] Thus, dams were maintained on doxycycline to suppress PARIS expression and pups were maintained on doxycycline diet for three weeks after birth. […] Dopamine neuronal number was assessed at 6 weeks of age when the mice were moribund by unbiased stereology counting of TH and Nissl positive neurons.
A second cohort of Tg-PARIS mice were maintained on […] prior to doxycycline withdrawal. Two groups of non-transgenic control (CamKIIα-tTA or TetP-PARIS) mice were subjected to the same dietary regimen.
To generate tet-off conditional PARIS transgenic mice, linearized transgenic constructs (NotI digestion, 8 kbp) were microinjected into the embryos and the embryos were transferred into B6D2F1 pseudo-pregnant female mice (Transgenic Animal Core of National Cancer Institute). The three high copy founders (line #121, 158, 179) were mated with C57/BL6 mice for two to three generations to establish the transgenic lines. PARIS induction in conditional transgenic mice was suppressed by feeding the mice with doxycycline-containing food (doxycycline Diet-Sterile, 200 mg per kg doxycycline, Bio-Serv).

[2] = dietary farnesol in rodents; cited from earlier work
[3] = farnesol-fed versus normal chow-fed mice

SMILES: CC(C)=CCC/C(C)=C/CC/C(C)=C/CO [farnesol, (2E,6E)-3,7,11-trimethyldodeca-2,6,10-trien-1-ol]
- mRNA levels of MCAD (PPARα and PPARγ; SN of farnesol fed mice): increases
- mRNA levels of PPARγ and ACOX1 (PPARα and PPARγ; SN of farnesol fed mice): decreases
- PGC-1α and NRF-1 levels (PPARα and PPARγ; farnesol fed mice): increase
- levels of PPARα and PPARγ (PPARα and PPARγ; farnesol fed mice): no alteration
- PGC-1α level increase, hippocampus (HIP) (PGC-1α): 1.6 fold
- PGC-1α level increase, olfactory bulb (OB) (PGC-1α): 2.7 fold
- PGC-1α level increase, substantia nigra (SN) (PGC-1α): 1.7 fold
- PGC-1α levels in cerebellum (CBM), brain stem (BS), striatum (STR), frontal cortex (CTX) (PGC-1α): No significant change
- neuroprotective effect in α-syn PFF-injected mice (α-syn PFF-injected mice): requires PARIS farnesylation in vivo
- level of serum triglycerides, cholesterol [1]: lowers
- activation of PPARγ in vitro (PPARγ): capable of activating
- PGC-1α and NRF-1 levels after knockdown of PARIS (PGC-1α and NRF-1): fails to enhance the levels further
- farnesylation of PARIS (cPK-KO mice; SN of cPK-KO mice, farnesol diet): enhanced farnesylation of PARIS
- decrements of PGC-1α and NRF-1 levels in the SN (cPK-KO mice; cPK-KO mice, farnesol diet): prevents the decrements of PGC-1α and NRF-1 levels
- loss of dopamine neurons in the SN (cPK-KO mice; cPK-KO, farnesol diet from 7 days prior to viral injection): completely and significantly prevents the loss of dopamine neurons
- PGC-1α and NRF-1 levels in the SN of control mice (cPK-KO mice; control mice, farnesol diet): increases PGC-1α and NRF-1 levels
- mRNA of PGC-1α, NRF-1, SOD2, TFAM, UCP2, CytC, COX II and COX 1 in the SN (cPK-KO mice; [3]): upregulation
- dopaminergic neuronal PGC-1α immunoreactivity (Tg-PARIS mice; Tg-PARIS SN, co-immunostaining): increased dopaminergic neuronal PGC-1α immunoreactivity
- Pole Test behavior (Tg-PARIS mice; Tg-PARIS, farnesol diet): complete behavioral rescue
- farnesylation of PARIS (FLAG immunoprecipitation, farnesyl antibody) (Tg-PARIS mice; Tg-PARIS, farnesol diet): enhanced farnesylation of PARIS
- premature lethality due to PARIS overexpression (Tg-PARIS mice; Tg-PARIS, farnesol diet): delays the premature lethality
- reduction in PGC-1α and NRF-1 levels (Tg-PARIS mice; Tg-PARIS, farnesol diet): blocked
- loss of dopamine neurons in the SN (TH and Nissl stereology) (Tg-PARIS mice; Tg-PARIS, farnesol diet from 3 days prior to doxycycline withdrawal): completely prevents the loss of dopamine neurons
- mRNA level of PGC-1α and NRF-1 in the SN (Tg-PARIS mice; [3]): significantly upregulated
- PGC-1α and NRF-1 levels in control mice (Tg-PARIS mice; non-transgenic control mice, farnesol diet): increases PGC-1α and NRF-1 levels
- cardioprotective effects [2]: exhibits cardioprotective effects
